Measurements from ChEMBL document CHEMBL5303304, “EUbOPEN Chemogenomics Library - IncuCyte” (2023).

Columns and labels:
Type in all cases: toxicity, cell-based
[1] = system: HEK-293T; assay: Incucyte cell viability with HEK293T; settings: human, 10 µM, compound concentration 10 uM
[2] = system: U2OS; assay: Incucyte cell viability with U2OS; settings: human, 10 µM, compound concentration 10 uM
[3] = system: Fibroblast; assay: Incucyte cell viability with human fibroblast; settings: 10 µM, compound concentration 10 uM
Also: unitless GR value; below 1 slowed growth and below 0 cell loss.

| SMILES | Growth Rate ([1]; 0 h, replicate number 1) | Growth Rate ([1]; 0 h, replicate number 2) | Growth Rate ([2]; 0 h, replicate number 1) | Growth Rate ([2]; 0 h, replicate number 2) | Growth Rate ([2]; 6 h, replicate number 1) | Growth Rate ([2]; 12 h, replicate number 2) | Growth Rate ([2]; 24 h, replicate number 1) | Growth Rate ([3]; 6 h, replicate number 1) | Growth Rate ([3]; 6 h, replicate number 2) | Growth Rate ([3]; 12 h, replicate number 2) | Growth Rate ([3]; 18 h, replicate number 2) | Growth Rate ([3]; 24 h, replicate number 2) | Growth Rate ([3]; 0 h, replicate number 2) | Growth Rate ([2]; 12 h, replicate number 1) | Growth Rate ([2]; 18 h, replicate number 1) | Growth Rate ([3]; 0 h, replicate number 1) | Growth Rate ([2]; 6 h, replicate number 2) | Growth Rate ([2]; 18 h, replicate number 2) | Growth Rate ([2]; 24 h, replicate number 2) | Growth Rate ([3]; 18 h, replicate number 1) | further results |
| --- | --- | --- | --- | --- | --- | --- | --- | --- | --- | --- | --- | --- | --- | --- | --- | --- | --- | --- | --- | --- | --- |
| CCC(C)(C)CC[C@H](NC(=O)N1CCOCC1)C(=O)NC1(C#N)CCN(C)CC1 | 0.93 | -0.17 | 0.09 | -0.03 | 1 | 0.96 | 0.88 | 0.76 | -0.59 | 0.5 | 0.95 | 0.95 | – | – | – | – | – | – | – | – | Growth Rate ([1]; 12 h, replicate number 2): 0.91 |
| CCCn1cc(-c2cc(C3C(=O)N(CC)c4ccc(C(F)(F)F)cc4N(c4ccccc4)C3=O)cc(OC)c2O)cn1 (centres undefined) | 0.67 | 0.59 | – | – | – | – | 0.91 | 0.92 | -0.56 | 0.46 | 0.74 | 0.85 | 0.51 | – | – | – | – | – | – | – | – |
| CC(C)(O)CNC(=O)N1C(=O)N(c2cccc(C(F)(F)F)c2)C2=C(C(=O)CC2)[C@H]1c1ccc(C#N)cc1 | -0.47 | – | 0.26 | – | 0.67 | 0.96 | 0.86 | – | – | – | 0.82 | 0.97 | 0.22 | 0.56 | 0.85 | – | – | – | – | – | Growth Rate ([1]; 12 h, replicate number 2): 0.98; Growth Rate ([1]; 18 h, replicate number 1): 0.94; Growth Rate ([1]; 18 h, replicate number 2): 1; Growth Rate ([1]; 24 h, replicate number 1): 0.94 |
| CN(C)C(=O)Cn1cc(-c2ccc(-c3cncc4ccccc34)cc2)cn1 | 0.29 | 0.39 | 0.61 | – | 0.46 | 0.83 | 0.9 | 0.8 | -0.33 | 0.98 | – | – | – | – | 0.99 | -1 | – | – | – | – | Growth Rate ([1]; 6 h, replicate number 1): 0.92 |
| Cc1cc2c(cc(C(=O)N[C@H](CO)c3ccc(S(=O)(=O)CC(=O)O)cc3)n2C)c(Cl)c1Cl | 0.87 | – | – | – | 0.61 | 0.94 | 0.95 | 0.15 | – | 0.77 | 0.68 | – | – | – | 0.92 | – | 0.7 | 0.79 | 1 | – | Growth Rate ([1]; 6 h, replicate number 1): 0.99; Growth Rate ([1]; 24 h, replicate number 1): 0.99 |
| CNC(=O)COc1cc2cc(Nc3nc(N4C[C@H](C)C[C@H](C)C4)ncc3Cl)ccc2n(C)c1=O | 0.06 | 0.7 | – | 0.58 | 0.85 | 0.85 | 0.95 | 0.72 | – | – | – | – | -0.82 | – | 0.92 | – | – | – | – | 0.7 | Growth Rate ([3]; 12 h, replicate number 1): 0.96; Growth Rate ([3]; 24 h, replicate number 1): 0.99 |
| Cn1cnc(Cn2ccc3ccc(CNCc4[nH]c5ccccc5c4[C@H]4NC(=O)c5ccc(O)cc54)cc32)c1 | -0.01 | – | – | 0.28 | 0.88 | 0.81 | 0.91 | 0.19 | 0.48 | – | 0.8 | – | -0.84 | 0.98 | – | -0.98 | 0.3 | 0.67 | 0.9 | 0.68 | – |
| Cc1cc(OCCC(C)(C)O)cc(C)c1-c1ccc(F)c2c1CC[C@H]2Oc1ccc2c(c1)OC[C@H]2CC(=O)O | 0.74 | 0.8 | 0.95 | – | 0.51 | 0.87 | 0.98 | 0.77 | – | -0.01 | 0.57 | 0.67 | – | 0.97 | 0.74 | -0.99 | – | 0.88 | 0.84 | – | Growth Rate ([1]; 6 h, replicate number 1): 0.79; Growth Rate ([1]; 12 h, replicate number 1): 0.91; Growth Rate ([1]; 12 h, replicate number 2): 0.86; Growth Rate ([1]; 18 h, replicate number 1): 0.98 |
| COc1ccc2c(O[C@@H]3C[C@H]4C(=O)N[C@]5(C(=O)NS(=O)(=O)C6(C)CC6)CC5/C=C\CCCCC[C@H](NC(=O)c5ccn(C)n5)C(=O)N4C3)cc(OC(C)C)nc2c1C (some centres undefined) | 1 | 0.49 | – | -0.46 | – | 0.63 | – | – | -0.88 | – | 0.84 | 0.88 | 0.85 | – | 0.99 | – | 0.93 | 0.79 | 0.78 | 0.9 | Growth Rate ([1]; 6 h, replicate number 1): 0.89; Growth Rate ([1]; 12 h, replicate number 1): 0.8; Growth Rate ([1]; 18 h, replicate number 1): 0.9; Growth Rate ([1]; 24 h, replicate number 1): 0.9; Growth Rate ([3]; 24 h, replicate number 1): 0.9 |
| C[C@@H]1C[C@H](C)CN(c2ncc(Cl)c(Nc3ccc4c(c3)cc(OC(C)(C)C(=O)O)c(=O)n4C)n2)C1 | 0.98 | 0.84 | 0.85 | -0.87 | 0.72 | 0.42 | 0.78 | – | – | 0.53 | 0.8 | 0.99 | – | – | – | – | -0.32 | 0.57 | 0.72 | – | – |
| CN1CCC(C#N)(NC(=O)[C@@H](NC(=O)N2CCOCC2)C(C)(C)C)CC1 | 0.92 | 0.91 | – | 0.61 | – | – | 0.92 | 0.5 | – | – | 0.75 | – | -0.99 | 0.98 | 0.98 | – | 0.92 | 1 | – | 0.98 | Growth Rate ([1]; 6 h, replicate number 1): 0.8; Growth Rate ([3]; 24 h, replicate number 1): 0.99 |
| Cc1nc2cccnc2n2c(-c3cc(C(C)(C)O)ncc3Cl)nnc12 | 0.72 | -0.52 | – | 0.27 | – | 0.74 | – | 0.43 | – | – | – | – | -0.22 | – | – | -1 | 0.32 | 0.95 | – | 0.63 | – |
| N#Cc1ccc(C#CC[C@@H](C#N)NC(=O)[C@@H]2CCCCN2)cc1F | 0.68 | – | 0.67 | 0.31 | 0.57 | 0.73 | – | 0.62 | – | 1 | 0.9 | – | -0.9 | 0.92 | – | -1 | – | 0.85 | 0.86 | 0.73 | Growth Rate ([1]; 6 h, replicate number 2): 0.76; Growth Rate ([1]; 12 h, replicate number 2): 0.89; Growth Rate ([3]; 12 h, replicate number 1): 0.89; Growth Rate ([3]; 24 h, replicate number 1): 0.74 |
| Cn1cnc(Cn2ccc3ccc(CNCc4[nH]c5ccccc5c4[C@@H]4NC(=O)c5ccc(O)cc54)cc32)c1 | 0.61 | – | – | – | 0.54 | 0.81 | 0.95 | 0.3 | -0.87 | 0.75 | 0.38 | 0.88 | 0.6 | 0.8 | 0.99 | -0.98 | 0.95 | 0.85 | – | 0.8 | Growth Rate ([3]; 24 h, replicate number 1): 0.98 |
| CCN1C(=O)c2cc(C)ccc2N(C)c2ncccc21 | 0.6 | 0.45 | – | 0.61 | – | 0.85 | – | 0.13 | 0.79 | 0.29 | 0.88 | – | -0.91 | 0.87 | – | -1 | 0.81 | 0.7 | 0.8 | 0.79 | Growth Rate ([1]; 6 h, replicate number 1): 0.52; Growth Rate ([1]; 6 h, replicate number 2): 1; Growth Rate ([1]; 12 h, replicate number 1): 0.32; Growth Rate ([1]; 12 h, replicate number 2): 0.41; Growth Rate ([1]; 18 h, replicate number 1): 0.42; Growth Rate ([1]; 18 h, replicate number 2): 0.71; Growth Rate ([1]; 24 h, replicate number 1): 0.65; Growth Rate ([1]; 24 h, replicate number 2): 0.74; Growth Rate ([3]; 12 h, replicate number 1): 0.88 |
| CS(=O)(=O)O.C[C@H](NC(=O)c1cnc2n1[C@](C)(Cc1ccc(C#N)cc1)C(=O)N2c1cc(Cl)c(F)c(Cl)c1)C(=O)NC1(c2ccccn2)CC1 | 0.44 | 0.94 | – | -0.46 | 0.8 | 0.49 | 0.82 | 0.73 | 0.85 | 0.94 | 0.61 | 0.87 | – | 0.92 | 0.98 | -1 | 0.54 | 0.81 | – | 0.98 | Growth Rate ([3]; 24 h, replicate number 1): 0.73 |
